Experimental data reported in US11554127B2, “Synergistic antitumor effect of Bcl-2 inhibitor combined with rituximab and/or bendamustine or Bcl-2 inhibitor combined with CHOP” (ASCENTAGE PHARMA (SUZHOU) CO., LTD., priority 2018, dated 2023).
Read-outs that look alike come from different tables or passages of the source.

Experiments:
Toledo = assay: in vitro cell experiments, sensitivity of Toledo cell line; assay type: cell-based; settings: Toledo human DLBCL cell line
OCI-LY8 cells = assay: in vitro experiment, sensitivity of OCI-LY8 cells; assay type: cell-based; settings: OCI-LY8 human DLBCL cell line
Experimental: (1) The experimental method was as described in Example 1. In the in vitro experiment, OCI-LY8 cells were also human DLBCL cell lines sensitive to Compound 6 treatment, with an IC50 value of 0.006±0.002 μM. Therefore, this experiment used OCI-LY8 cells to establish a mouse xenograft tumor model (A. Esteve-Arenys et al. The BET bromodomain inhibitor CP1203 overcomes resistance to ABT-199 (venetoclax) by downregulation of BFL-1/A1 in in vitro and in vivo models of MYC+/BCL2+ double hit lymphoma. Oncogene 37(14). January 2018), and thereby evaluated the anti-tumor effect of Compound 6 in combination with rituximab.

DOHH2 = assay: in vitro cell experiments, sensitivity of DOHH2 cell line; assay type: cell-based; settings: DOHH2 human follicular lymphoma cell line
[1] = test system: human Toledo (DLBCL) mouse xenograft tumor; assay type: in vivo; settings: Compound 6 100 mg/kg p.o. qd×14 days; rituximab 4 mg/kg i.v. qw; day 15
Experimental: (§1) All animal experiments were strictly in accordance with the laboratory animal use and management practices of GenePharma Co., Ltd. and Ascentage Pharma Group Co., Ltd. The calculation of relevant parameters referred to the Chinese CFDA “Guidelines for Non-Clinical Research Techniques of Cytotoxic Antitumor Drugs”.
(§2) The animal body weight and tumor size were measured twice weekly during the experiment. The conditions and death of the animals were observed every day. Routine monitoring included the effects of tumor growth and treatment on normal animal behaviors, including activity, feeding and drinking situations, weight gain or loss, eyes, coat and other abnormalities in the experimental animals. The deaths and clinical symptoms observed during the experiment were recorded in the raw data. The entire operations of administration, measurement of mouse body weight and tumor volume were performed in a clean bench. Plasma and tumor tissues were collected, weighed and photographed after the end of the last administration according to the experimental protocol. Plasma and tumor samples were snap frozen and stored at −80° C.
(§3) Tumor volume (TV) was calculated as: TV=a×b2/2, in which a and b represented the length and width of the tumor as measured, respectively. The relative tumor volume (RTV) was calculated as: RTV=Vt/V1, in which V1 was the tumor volume at the time of grouping and administration, and Vt was the tumor volume measured on a day after administration. […] Change of body weight %=(measured body weight−body weight at the time of grouping)/body weight at the time of grouping×100%.
(§4) If the synergy factor was >1, there was a synergistic effect; if the synergistic factor=1, there was an additive effect; if the synergistic factor <1, there was an antagonistic effect.

[2] = test system: human OCI-LY8 (DLBCL) mouse xenograft tumor; assay type: in vivo
Experimental: as §1, §2, §3, §4
Bendamustine was an FDA approved drug for the treatment of B-cell non-Hodgkin's lymphoma.

[3] = test system: human DOHH2 (FL) mouse xenograft tumor; assay type: in vivo; settings: day 15; for Tumor remission on the 15th day after administration: CR: animals with CR/group; for Tumor remission on the 15th day after administration: PR: animals with PR/group
Experimental: as §1, §2, §3, §4
CHOP included: cyclophosphamide, 20 mg/kg, intraperitoneal injection, administered on the 1st and 9th days; doxorubicin, 2 mg/kg, intravenous injection, administered on the 1st day; vincristine, 0.1 mg/kg, intravenous injection, administered on the 1st and 9th days; prednisone, 0.5 mg/kg, orally administered on the 1st day. […] The injected dose was 10 mL/kg (0.2 mL/mouse). The agent was dissolved in saline. […] The agent was dissolved in saline. Vincristine (batch number 0708v1) was purchased from Shenzhen Main Luck Pharmaceuticals Inc. Vincristine was administered by intravenous injection at a dose of 10 mL/kg (0.2 mL/mouse). The agent was dissolved in saline. Prednisone (batch number M0412A) was purchased from Dalian Meilun Biotechnology Co., Ltd. Prednisone was administered by oral gavage at a dose of 10 mL/kg (0.2 mL/mouse). […] The dosage formulations were prepared freshly prior to use. The preparation and use of the dosage formulations were always carried out under sterile conditions.

[4] = Cpd. 6 25 mg/kg p.o. qd×15d, day 11
[5] = Cpd. 6 50 mg/kg p.o. qd×15d, alone or + rituximab 4 mg/kg i.v. qw×2 wks, day 11
[6] = Cpd. 6 100 mg/kg p.o. qd×15d, alone or + rituximab 4 mg/kg i.v. qw×2 wks, day 11
[7] = Table 3: Cpd. 6 100 mg/kg p.o. qd, bendamustine 25 mg/kg i.v., rituximab 10 mg/kg i.v., day 11
[8] = Table 4: Cpd. 6 100 mg/kg p.o. qd, bendamustine 25 mg/kg, rituximab 10 mg/kg
[9] = Table 4: Cpd. 6 100 mg/kg, bendamustine 25 mg/kg, rituximab 10 mg/kg
[10] = Table 5: Cpd. 6 100 mg/kg, CHOP regimen
[11] = rituximab alone 4 mg/kg i.v. qw×2 wks, day 11

## O=C(NS(=O)(=O)c1ccc(NC[C@H]2COCCO2)c([N+](=O)[O-])c1)c1ccc(N2CCN(CC3=C(c4ccc(Cl)cc4)CC4(CCC4)CC3)CC2)cc1Oc1cnc2[nH]ccc2c1 [Compound 6, (S)-N-((4-(((1,4-dioxan-2-yl)methyl)amino)-3-nitrophenyl)sulfonyl)-2-((1H-pyrrolo[2,3-b]pyridin-5-yl)oxy)-4-(4-((6-(4-chlorophenyl)spiro[3.5]non-6-en-7-yl)methyl)piperazin-1-yl)benzamide]
Toledo
  IC50: 49 ± 5 nM
OCI-LY8 cells
  IC50: 6 ± 2 nM
DOHH2
  sensitivity of cell line to Compound 6 treatment: relatively sensitive
[1]
  RTV on the 15th day after administration (mean ± standard error): 4.93 ± 0.41 ^
  T/C (%) on the 15th day after administration: 38%
[2]; [4]
  RTV on the 11th day after administration (mean ± standard error): 6.87 ± 2.1 **^
  T/C (%) on the 11th day after administration: 37%
  Tumor status on the 11th day after administration (remission rate %): 0%
[2]; Cpd. 6 25 mg/kg p.o. qd×15d, day 11, animals with CR/group
  Tumor status on the 11th day after administration: CR: 0/5 CR,
[2]; Cpd. 6 25 mg/kg p.o. qd×15d, day 11, animals with PR/group
  Tumor status on the 11th day after administration: PR: 0/5
[2]; [5]
  RTV on the 11th day after administration (mean ± standard error): 6.19 ± 1.86
  T/C (%) on the 11th day after administration: 33%
[2]; Cpd. 6 50 mg/kg, alone or + rituximab 4 mg/kg, day 11
  Tumor status on the 11th day after administration (remission rate %): 0%
[2]; Cpd. 6 50 mg/kg, alone or + rituximab 4 mg/kg, day 11, animals with CR/group
  Tumor status on the 11th day after administration: CR: 0/5 CR,
[2]; Cpd. 6 50 mg/kg, alone or + rituximab 4 mg/kg, day 11, animals with PR/group
  Tumor status on the 11th day after administration: PR: 0/5
[2]; [6]
  RTV on the 11th day after administration (mean ± standard error): 5.54 ± 1.78
  T/C (%) on the 11th day after administration: 30%
[2]; Cpd. 6 100 mg/kg, alone or + rituximab 4 mg/kg, day 11
  Tumor status on the 11th day after administration (remission rate %): 0%
[2]; Cpd. 6 100 mg/kg, alone or + rituximab 4 mg/kg, day 11, animals with CR/group
  Tumor status on the 11th day after administration: CR: 0/5 CR,
[2]; Cpd. 6 100 mg/kg, alone or + rituximab 4 mg/kg, day 11, animals with PR/group
  Tumor status on the 11th day after administration: PR: 0/5
[2]; [7]
  RTV on the 11th day after administration (mean ± standard error): 5.54 ± 1.78
  T/C (%) on the 11th day after administration: 30%
[2]; Table 3: Cpd. 6 100 mg/kg, bendamustine 25 mg/kg, rituximab 10 mg/kg, day 11
  On the 11th day after administration (remission rate %): 0%
[2]; Table 3: Cpd. 6 100 mg/kg, bendamustine 25 mg/kg, rituximab 10 mg/kg, day 11, animals with CR/group
  On the 11th day after administration: CR: 0/5 CR,
[2]; Table 3: Cpd. 6 100 mg/kg, bendamustine 25 mg/kg, rituximab 10 mg/kg, day 11, animals with PR/group
  On the 11th day after administration: PR: 0/5
[3]; [8]
  RTV on the 15th day after administration (mean ± standard error): 3.06 ± 0.79
  T/C (%) on the 15th day after administration: 28%
[3]; [9]
  Tumor remission rate on the 15th day after administration %: 0%
  Tumor remission on the 15th day after administration: CR: 0/5
  Tumor remission on the 15th day after administration: PR: 0/5
[3]; Table 5: Cpd. 6 100 mg/kg, CHOP (cyclophosphamide 20 mg/kg i.p. d1, d9; doxorubicin 2 mg/kg i.v. d1; vincristine 0.1 mg/kg i.v. d1, d9; prednisone 0.5 mg/kg p.o. d1)
  RTV on the 15th day after administration (mean ± standard error): 3.06 ± 0.79
[3]; [10]
  T/C (%) on the 15th day after administration: 28%
  Tumor remission rate on the 15th day after administration %: 0%
  Tumor remission on the 15th day after administration: CR: 0/5
  Tumor remission on the 15th day after administration: PR: 0/5

## Rituximab [reference compound]
[1]
  RTV on the 15th day after administration (mean ± standard error): 8.99 ± 2.15 ^
  T/C (%) on the 15th day after administration: 69%
[2]; [11]
  RTV on the 11th day after administration (mean ± standard error): 1.38 ± 0.69
  T/C (%) on the 11th day after administration: 7%
[2]; rituximab alone 4 mg/kg, day 11
  Tumor status on the 11th day after administration (remission rate %): 80%
[2]; rituximab alone 4 mg/kg, day 11, animals with CR/group
  Tumor status on the 11th day after administration: CR: 0/5 CR,
[2]; rituximab alone 4 mg/kg, day 11, animals with PR/group
  Tumor status on the 11th day after administration: PR: 4/5
[2]; rituximab alone 4 mg/kg, day 11, animals with PR/group, listed as rituximab
  Tumor status on the 11th day after administration: PR: Four out of five
[2]; rituximab alone 4 mg/kg, day 22, after drug discontinuance
  RTV on the 22nd day after administration (mean ± standard error): 20.04 ± 5.38 ^
